In paper PMC6199744, “Development of Chemical Proteomics for the Folateome and Analysis of the Kinetoplastid Folateome” (ACS Infectious Diseases, 2018):
Read-outs that look alike come from different tables or passages of the source.

How the values were obtained:
Type in all cases: binding
[1] = biological target: T1, HeLa cell extract proteins (Homo sapiens, UniProt O15027)
T1 construct: endogenous in cells; host or cells: HeLa cell extract

[2] = biological target: T2, HeLa cell extract proteins (Homo sapiens, UniProt Q9GZT8)
T2 construct: endogenous in cells; host or cells: HeLa cell extract
T2 sequence (Q9GZT8 1-377): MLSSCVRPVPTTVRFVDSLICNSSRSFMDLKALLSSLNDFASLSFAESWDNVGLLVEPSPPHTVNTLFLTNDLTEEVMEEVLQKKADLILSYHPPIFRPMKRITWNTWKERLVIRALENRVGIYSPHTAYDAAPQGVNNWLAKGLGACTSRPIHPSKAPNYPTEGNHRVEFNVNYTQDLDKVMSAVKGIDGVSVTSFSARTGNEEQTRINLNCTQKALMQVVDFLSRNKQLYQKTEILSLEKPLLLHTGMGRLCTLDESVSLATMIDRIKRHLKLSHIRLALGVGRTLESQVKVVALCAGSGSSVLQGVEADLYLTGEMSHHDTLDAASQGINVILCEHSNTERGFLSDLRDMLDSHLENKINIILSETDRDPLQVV

[3] = biological target: T3, HeLa cell extract proteins (Homo sapiens, UniProt Q9UHX1)
T3 construct: endogenous in cells; host or cells: HeLa cell extract
T3 sequence (Q9UHX1 1-559): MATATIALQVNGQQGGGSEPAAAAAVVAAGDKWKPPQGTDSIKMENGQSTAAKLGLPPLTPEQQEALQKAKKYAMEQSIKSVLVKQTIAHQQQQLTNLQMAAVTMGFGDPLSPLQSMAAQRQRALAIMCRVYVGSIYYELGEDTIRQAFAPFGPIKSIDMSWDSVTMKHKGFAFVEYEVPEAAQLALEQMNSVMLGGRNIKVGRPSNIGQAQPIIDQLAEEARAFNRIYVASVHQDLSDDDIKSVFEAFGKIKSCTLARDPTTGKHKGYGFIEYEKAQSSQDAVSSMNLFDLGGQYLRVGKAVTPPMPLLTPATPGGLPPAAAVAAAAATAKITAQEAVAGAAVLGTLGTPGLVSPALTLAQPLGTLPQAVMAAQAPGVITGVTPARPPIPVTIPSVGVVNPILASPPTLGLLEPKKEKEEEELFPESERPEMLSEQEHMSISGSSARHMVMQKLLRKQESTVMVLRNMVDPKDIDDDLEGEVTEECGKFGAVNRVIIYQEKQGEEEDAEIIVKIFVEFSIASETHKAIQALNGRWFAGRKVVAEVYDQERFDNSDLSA

[4] = biological target: T4, HeLa cell extract proteins (Homo sapiens, UniProt P35680)
T4 construct: endogenous in cells; host or cells: HeLa cell extract
T4 sequence (P35680 whole entry): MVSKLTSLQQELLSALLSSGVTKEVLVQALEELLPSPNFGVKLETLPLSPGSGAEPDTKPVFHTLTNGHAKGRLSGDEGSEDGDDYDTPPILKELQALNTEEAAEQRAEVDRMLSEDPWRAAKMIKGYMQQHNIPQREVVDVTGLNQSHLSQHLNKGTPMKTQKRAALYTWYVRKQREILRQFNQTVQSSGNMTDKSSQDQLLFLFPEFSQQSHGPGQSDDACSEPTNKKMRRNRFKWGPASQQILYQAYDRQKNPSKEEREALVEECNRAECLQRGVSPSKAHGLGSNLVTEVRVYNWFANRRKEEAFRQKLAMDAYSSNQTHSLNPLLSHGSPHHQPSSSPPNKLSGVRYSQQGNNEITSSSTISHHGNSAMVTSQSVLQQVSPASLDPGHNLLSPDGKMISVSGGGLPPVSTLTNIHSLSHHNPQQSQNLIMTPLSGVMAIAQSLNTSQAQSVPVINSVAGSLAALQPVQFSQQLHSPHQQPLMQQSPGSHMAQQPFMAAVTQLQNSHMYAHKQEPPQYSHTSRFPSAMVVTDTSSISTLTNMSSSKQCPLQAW

[5] = biological target: T5, HeLa cell extract proteins (Homo sapiens, UniProt P25205)
T5 construct: endogenous in cells; host or cells: HeLa cell extract
T5 sequence (P25205 1-808): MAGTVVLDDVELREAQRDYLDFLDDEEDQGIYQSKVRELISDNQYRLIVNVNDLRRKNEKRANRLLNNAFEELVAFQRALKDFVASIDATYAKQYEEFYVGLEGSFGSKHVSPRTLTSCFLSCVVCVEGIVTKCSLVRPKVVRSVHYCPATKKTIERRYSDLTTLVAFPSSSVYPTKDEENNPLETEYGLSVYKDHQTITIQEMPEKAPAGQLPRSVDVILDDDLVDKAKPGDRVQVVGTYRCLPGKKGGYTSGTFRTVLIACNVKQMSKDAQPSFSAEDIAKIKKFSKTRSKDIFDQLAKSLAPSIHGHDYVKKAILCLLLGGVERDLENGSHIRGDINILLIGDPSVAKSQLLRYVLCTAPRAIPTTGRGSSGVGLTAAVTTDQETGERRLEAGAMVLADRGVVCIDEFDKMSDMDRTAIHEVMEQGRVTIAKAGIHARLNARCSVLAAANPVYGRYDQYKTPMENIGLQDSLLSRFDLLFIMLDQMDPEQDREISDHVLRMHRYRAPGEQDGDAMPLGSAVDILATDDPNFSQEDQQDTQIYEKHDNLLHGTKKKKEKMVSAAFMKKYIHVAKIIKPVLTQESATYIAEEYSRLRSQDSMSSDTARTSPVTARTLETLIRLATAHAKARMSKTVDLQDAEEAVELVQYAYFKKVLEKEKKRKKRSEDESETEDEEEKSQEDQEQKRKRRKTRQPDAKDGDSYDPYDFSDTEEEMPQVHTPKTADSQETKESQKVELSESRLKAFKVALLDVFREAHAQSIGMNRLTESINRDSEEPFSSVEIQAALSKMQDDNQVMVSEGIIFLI

[6] = biological target: T6, HeLa cell extract proteins (Homo sapiens, UniProt Q16637)
T6 construct: endogenous in cells; host or cells: HeLa cell extract
T6 sequence (Q16637 whole entry): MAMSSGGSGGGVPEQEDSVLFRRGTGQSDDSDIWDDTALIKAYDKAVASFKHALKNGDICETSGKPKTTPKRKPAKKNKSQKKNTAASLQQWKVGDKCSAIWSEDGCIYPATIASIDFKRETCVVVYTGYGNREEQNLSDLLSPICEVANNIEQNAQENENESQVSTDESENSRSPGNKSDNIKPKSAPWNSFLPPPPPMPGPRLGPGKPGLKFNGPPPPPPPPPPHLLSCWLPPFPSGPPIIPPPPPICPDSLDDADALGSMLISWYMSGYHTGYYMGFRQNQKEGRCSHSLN

[7] = biological target: T7, HeLa cell extract proteins (Homo sapiens, UniProt O00571)
T7 construct: endogenous in cells; host or cells: HeLa cell extract
T7 sequence (O00571 whole entry): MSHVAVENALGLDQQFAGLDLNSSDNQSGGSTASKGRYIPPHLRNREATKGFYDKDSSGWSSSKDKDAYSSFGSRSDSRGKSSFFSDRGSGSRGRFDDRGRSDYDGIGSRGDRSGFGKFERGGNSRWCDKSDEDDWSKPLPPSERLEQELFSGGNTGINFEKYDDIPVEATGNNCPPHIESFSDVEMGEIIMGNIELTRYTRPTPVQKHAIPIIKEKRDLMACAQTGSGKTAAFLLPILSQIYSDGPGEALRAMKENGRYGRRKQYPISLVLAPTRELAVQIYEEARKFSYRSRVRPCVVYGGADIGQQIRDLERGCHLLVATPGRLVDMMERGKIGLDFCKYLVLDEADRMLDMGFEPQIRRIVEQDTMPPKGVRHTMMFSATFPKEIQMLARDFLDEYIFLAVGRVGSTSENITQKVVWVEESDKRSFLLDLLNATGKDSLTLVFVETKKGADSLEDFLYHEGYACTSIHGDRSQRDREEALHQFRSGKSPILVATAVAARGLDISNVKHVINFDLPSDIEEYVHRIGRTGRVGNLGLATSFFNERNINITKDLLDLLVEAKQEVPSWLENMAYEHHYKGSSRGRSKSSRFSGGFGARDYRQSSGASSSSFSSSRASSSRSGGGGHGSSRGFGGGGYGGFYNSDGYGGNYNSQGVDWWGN

[8] = biological target: T8, HeLa cell extract proteins (Homo sapiens, UniProt P13807)
T8 construct: endogenous in cells; host or cells: HeLa cell extract
T8 sequence (P13807 1-737): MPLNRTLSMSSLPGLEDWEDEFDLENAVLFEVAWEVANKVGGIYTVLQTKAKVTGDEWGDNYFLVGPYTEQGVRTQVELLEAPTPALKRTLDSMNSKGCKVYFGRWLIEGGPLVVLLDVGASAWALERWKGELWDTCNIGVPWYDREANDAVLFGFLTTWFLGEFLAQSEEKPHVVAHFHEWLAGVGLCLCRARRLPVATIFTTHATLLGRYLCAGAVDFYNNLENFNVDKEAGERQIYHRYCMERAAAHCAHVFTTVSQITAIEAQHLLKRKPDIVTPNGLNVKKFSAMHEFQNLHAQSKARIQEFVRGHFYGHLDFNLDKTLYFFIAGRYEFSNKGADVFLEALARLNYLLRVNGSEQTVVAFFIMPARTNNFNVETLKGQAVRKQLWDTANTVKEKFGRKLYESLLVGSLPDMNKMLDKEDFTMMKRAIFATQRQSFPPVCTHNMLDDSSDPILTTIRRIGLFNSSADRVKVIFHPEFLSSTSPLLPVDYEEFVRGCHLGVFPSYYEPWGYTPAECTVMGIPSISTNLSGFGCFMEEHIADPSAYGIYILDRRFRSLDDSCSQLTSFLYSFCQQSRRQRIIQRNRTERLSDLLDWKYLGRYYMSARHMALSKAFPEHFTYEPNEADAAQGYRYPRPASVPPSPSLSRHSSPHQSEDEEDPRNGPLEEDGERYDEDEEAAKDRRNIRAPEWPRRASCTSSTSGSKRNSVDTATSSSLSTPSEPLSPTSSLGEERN

[9] = HeLa, protein SEC16A (HY[…] LOC9919)

T1 sequence (O15027 whole entry): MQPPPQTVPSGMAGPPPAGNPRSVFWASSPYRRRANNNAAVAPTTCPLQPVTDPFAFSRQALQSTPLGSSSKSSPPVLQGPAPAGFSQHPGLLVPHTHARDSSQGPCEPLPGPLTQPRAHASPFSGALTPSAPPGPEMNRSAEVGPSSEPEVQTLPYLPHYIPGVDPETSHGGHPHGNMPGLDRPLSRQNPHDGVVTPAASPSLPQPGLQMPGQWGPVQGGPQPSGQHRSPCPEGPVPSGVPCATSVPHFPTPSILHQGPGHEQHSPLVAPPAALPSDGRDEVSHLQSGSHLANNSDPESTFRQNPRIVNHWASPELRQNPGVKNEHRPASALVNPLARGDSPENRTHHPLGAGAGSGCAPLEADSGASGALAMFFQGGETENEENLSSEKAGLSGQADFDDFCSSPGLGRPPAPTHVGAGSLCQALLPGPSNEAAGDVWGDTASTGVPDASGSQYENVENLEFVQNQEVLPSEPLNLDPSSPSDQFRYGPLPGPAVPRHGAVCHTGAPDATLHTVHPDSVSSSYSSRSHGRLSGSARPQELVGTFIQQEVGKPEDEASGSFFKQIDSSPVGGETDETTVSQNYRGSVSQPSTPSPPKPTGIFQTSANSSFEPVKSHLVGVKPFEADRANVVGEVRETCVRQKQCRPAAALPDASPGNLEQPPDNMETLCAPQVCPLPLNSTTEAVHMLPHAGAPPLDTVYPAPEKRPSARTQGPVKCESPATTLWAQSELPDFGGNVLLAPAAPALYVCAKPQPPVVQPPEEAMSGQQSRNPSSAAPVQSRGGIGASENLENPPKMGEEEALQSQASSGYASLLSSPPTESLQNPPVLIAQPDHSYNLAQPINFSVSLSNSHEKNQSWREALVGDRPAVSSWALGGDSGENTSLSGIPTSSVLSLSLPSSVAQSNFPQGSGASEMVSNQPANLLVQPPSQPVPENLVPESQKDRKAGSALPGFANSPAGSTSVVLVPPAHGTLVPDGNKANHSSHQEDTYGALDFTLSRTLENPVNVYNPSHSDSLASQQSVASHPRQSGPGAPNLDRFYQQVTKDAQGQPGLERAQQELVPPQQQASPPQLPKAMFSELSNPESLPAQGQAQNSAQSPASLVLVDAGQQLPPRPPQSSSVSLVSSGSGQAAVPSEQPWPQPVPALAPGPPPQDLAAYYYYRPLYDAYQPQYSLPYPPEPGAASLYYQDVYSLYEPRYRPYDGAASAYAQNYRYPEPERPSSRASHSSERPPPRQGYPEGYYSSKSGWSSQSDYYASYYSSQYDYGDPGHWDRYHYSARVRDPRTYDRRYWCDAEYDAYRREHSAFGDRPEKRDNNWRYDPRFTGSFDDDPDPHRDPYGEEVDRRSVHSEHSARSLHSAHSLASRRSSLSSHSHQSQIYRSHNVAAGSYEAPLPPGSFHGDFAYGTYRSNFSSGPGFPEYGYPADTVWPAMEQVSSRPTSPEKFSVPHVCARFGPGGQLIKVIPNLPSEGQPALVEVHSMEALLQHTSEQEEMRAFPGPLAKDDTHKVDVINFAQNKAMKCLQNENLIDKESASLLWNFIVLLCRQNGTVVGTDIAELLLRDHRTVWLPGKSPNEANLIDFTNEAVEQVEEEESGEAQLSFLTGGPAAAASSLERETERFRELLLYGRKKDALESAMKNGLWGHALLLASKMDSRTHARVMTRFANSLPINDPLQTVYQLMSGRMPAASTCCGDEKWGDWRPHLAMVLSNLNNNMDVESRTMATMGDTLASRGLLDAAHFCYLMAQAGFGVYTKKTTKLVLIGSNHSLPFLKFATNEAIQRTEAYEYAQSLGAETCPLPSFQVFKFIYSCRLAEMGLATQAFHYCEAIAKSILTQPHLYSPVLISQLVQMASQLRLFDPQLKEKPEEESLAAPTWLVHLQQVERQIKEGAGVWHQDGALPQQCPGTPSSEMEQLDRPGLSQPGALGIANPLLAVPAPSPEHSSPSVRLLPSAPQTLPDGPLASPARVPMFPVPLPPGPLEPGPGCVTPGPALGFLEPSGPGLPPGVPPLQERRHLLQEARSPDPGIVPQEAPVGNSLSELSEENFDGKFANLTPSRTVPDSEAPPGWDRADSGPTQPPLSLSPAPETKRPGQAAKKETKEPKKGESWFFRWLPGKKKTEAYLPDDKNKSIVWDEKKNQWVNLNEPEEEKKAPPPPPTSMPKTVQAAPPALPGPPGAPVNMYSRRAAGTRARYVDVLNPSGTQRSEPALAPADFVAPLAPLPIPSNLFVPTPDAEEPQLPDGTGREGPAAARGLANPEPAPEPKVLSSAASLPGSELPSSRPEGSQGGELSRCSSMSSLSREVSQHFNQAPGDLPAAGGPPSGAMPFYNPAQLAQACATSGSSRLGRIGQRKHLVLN

| SMILES | fold changes relative to vehicle control ([1]; HeLa, protein SEC16A) | fold changes relative to vehicle control ([2]; captured protein NIF3L1, HeLa) | fold changes relative to vehicle control ([3]; HeLa, protein PUF60) | fold changes relative to vehicle control ([4]; captured protein HNF1B, HeLa) | fold changes relative to vehicle control ([5]; protein MCM3, HeLa) | fold changes relative to vehicle control ([6]; protein SMN1, HeLa) | fold changes relative to vehicle control ([7]; protein DDX3X, HeLa) | fold changes relative to vehicle control ([8]; captured protein GYS1, HeLa) | fold changes relative to vehicle control ([2]; protein NIF3L1, HeLa) | fold changes relative to vehicle control ([3]; HeLa, captured protein PUF60) | fold changes relative to vehicle control ([4]; HeLa, protein HNF1B) | fold changes relative to vehicle control ([5]; HeLa, protein MCM3) | fold changes relative to vehicle control ([6]; HeLa, protein SMN1) | fold changes relative to vehicle control ([7]; HeLa, captured protein DDX3X) | fold changes relative to vehicle control ([8]; HeLa, protein GYS1) | other results |
| --- | --- | --- | --- | --- | --- | --- | --- | --- | --- | --- | --- | --- | --- | --- | --- | --- |
| Nc1nc2cccc(-c3ccccc3)c2n1Cc1ccc(Cl)c(Cl)c1 [compound 3] | 1.19 | 0.98 | 1.02 | 1 | 1.29 | 0.98 | 0.94 | 0.93 | – | – | – | – | – | – | – | – |
| CCCCCCOc1ccc(Cc2cnc(N)nc2N)cc1 [compound 1] | 1 | 0.5 | 1.01 | 0.64 | 0.94 | 1 | 0.96 | 0.9 | – | – | – | – | – | – | – | – |
| NCCCNc1ccc(C(=O)NC(CCC(=O)O)C(=O)O)cc1 (centres unmarked) [compound 7] | – | – | – | – | – | – | – | – | 0.94 | 0.95 | 1.07 | 0.93 | 0.97 | 0.93 | 0.98 | fold changes relative to vehicle control ([1]; HeLa, protein SEC16A (HYPOTHETICAL PROTEIN LOC9919)): 1.3 |
| CCCCCCOc1cccc(Cc2cnc(N)nc2N)c1 [compound 2] | 0.97 | 0.97 | 1.05 | 1.01 | 1.38 | 1.09 | 1.05 | 0.84 | – | – | – | – | – | – | – | – |
| NCCOCCOCC(=O)Nc1nc2ncc(CNc3ccc(C(=O)NC(CCC(=O)O)C(=O)O)cc3)nc2c(=O)[nH]1 (centres unmarked) [compound 6] | – | – | – | – | – | – | – | – | 0.25 | 0.92 | 0.81 | 1.01 | 1.16 | 0.9 | 0.98 | fold changes relative to vehicle control [1, 9]: 1.13 |
| Nc1nc2[nH]cc(CCc3ccc(C(=O)N[C@@H](CCC(=O)O)C(=O)O)cc3)c2c(=O)[nH]1 [PTX, pemetrexed] | – | – | – | – | – | – | – | – | – | – | – | – | – | – | – | fold changes relative to vehicle control [1]: 1.17; fold changes relative to vehicle control [2]: 0.9; fold changes relative to vehicle control [3]: 0.9; fold changes relative to vehicle control [4]: 0.82; fold changes relative to vehicle control [5]: 1.03; fold changes relative to vehicle control [6]: 0.99; fold changes relative to vehicle control [7]: 0.86; fold changes relative to vehicle control [8]: 0.94 |
| Nc1nc2c(c(=O)[nH]1)N(C=O)C(CNc1ccc(C(=O)N[C@@H](CCC(=O)O)C(=O)O)cc1)CN2 (some centres unmarked) [LEU, leucovorin] | – | – | – | – | – | – | – | – | 0.95 | 1.01 | 0.87 | 0.91 | 0.94 | 0.94 | 0.97 | fold changes relative to vehicle control [1, 9]: 1.25 |
